The IC50 is the concentration needed to halve the response being measured. By Ki is commonly meant a measure of affinity in units of concentration, obtained from inhibition or displacement.

Where two headings read alike, the source gives them in different places. Some results are limits rather than exact numbers.

Consider one molecule from PMC11678869, “Functional Role of Odorant-Binding Proteins in Response to Sex Pheromone Component Z8-14:Ac in Grapholita molesta (Busck)” (Insects, 2024).

In experiment [1] the test system is PFM males. In words: Field trapping with delta traps, pear orchard. It is filed as in vivo, Grapholita funebrana. The protocol:
To determine the inhibitory effects on OFM male adults and the impact on the trapping effects of PFM male adults, varying amounts of Z8-14:Ac (0, 5, 10, 25, 50, 75, 100, 125, 150 μg) or Z10-14:Ac (0, 25, 50, 100, 150, 250, 350, 450, and 550 μg) were added to rubber septa loaded with a constant dosage of the main pheromone (500 μg of Z8-12:Ac and 20 μg of E8-12:Ac) of the PFM. Trapping experiments of Z8-14:Ac were carried out in peach and pear orchards in Yan’an and Xinjiang (China), respectively. Trapping tests of Z10-14:Ac were performed in pear orchards in Xinjiang (China). Each orchard had nine plots, with three plots in one field. Each plot consisted of a linear arrangement of traps loaded with a constant dosage of the main pheromones and different percentages of the secondary pheromone Z8-14:Ac or Z10-14:Ac of the PFM. Plots in the same field were placed 30 m apart, and fields were ≥1 km apart. The traps were hung 1.4 m from the ground on a suspension bracket between two rows of peach or pear trees from 10 June to 25 July 2021 in Xinjiang and from 15 June to 30 July 2021 in Yan’an. The positions of the traps within the plot were randomly arranged. Every 5 days, counts were taken, and the traps were rotated to the adjacent position to avoid any potential position effects. The septa loaded with sex pheromone components were replaced with new ones after every 15 days of suspension. The data were analyzed using a one-way ANOVA, and the differences in the average trapping of OFM and PFM males using sex attractants containing different amounts of Z8-14:Ac or Z10-14:Ac were further analyzed using Tukey’s HSD test, both of which were performed using SPSS 23.0.

Experiment [2] deals with rGmolPBP1 (Grapholita molesta, UniProt A0A2R4SBD6). In words: Fluorescence competitive binding assay with 1-NPN probe. The source says:
(§1) Previous researchers have successfully expressed rGmolPBP1, rGmolPBP2, rGmolPBP3, rGmolGOBP1, and rGmolGOBP2 proteins using prokaryotic expression systems. In this article, the DNA sequences of these five GmolPBPs and GmolGOBPs, with the signal peptides removed and restriction sites on both ends, were inserted into the expression vector pET28a(+) linearized with the same restriction enzyme. These vectors were then transformed into Escherichia coli BL21(DE3) and induced by isopropyl-β-d-thiogalactoside (IPTG). Since all five recombinant proteins were expressed in inclusion bodies, they were denatured using 8 M urea and then renatured using a cysteine/cystine REDOX system. The reduced recombinant proteins were purified using an Ni-NTA His Bind Resin column (7Sea Pharmatech Co., Ltd., Shanghai, China). Non-target proteins were washed off with washing buffer (20 mM Tris-HCl (pH 7.4), 20 mM imidazole, 1 mM PMSF, and 250 mM NaCl), and then the target proteins were eluted with elution buffer (20 mM Tris-HCl (pH 7.4), 1 mM PMSF, and 250 mM NaCl) with an increasing concentration of imidazole (50, 100, and 200 mM). Five milliliters of eluents with high target protein content and low levels of contaminants were collected and placed in dialysis tubing (Coolaber, Beijing, China) with a molecular weight cut-off of 3.5 kDa to remove NaCl and imidazole. The purified soluble proteins were stored at −80 °C before use.
(§2) The binding affinities of three rGmolPBPs and two rGmolGOBPs for Z8-14:Ac were determined using an F-2700 fluorescence spectrophotometer (Hitachi, Tokyo, Japan). First, we measured the dissociation constants (Kd) of the rGmolPBPs (or rGmolGOBPs) binding to 1−NPN. Each protein was diluted to 2 μM with 20 mM Tris-HCl buffer (pH 7.4); then, 2 mL of the protein solution was transferred to a quartz cuvette and titrated with 1 mM 1−NPN to a final concentration of 1–18 μM. As the doses of 1−NPN were increased, the increasing amplitude of the fluorescence intensity decreased, and finally, the binding of the protein to 1−NPN reached saturation. The Kd values were calculated using the nonlinear regression method and the Scatchard equation. Second, we measured the inhibitory constant (Ki) of Z8-14:Ac’s competitive binding with each rGmolPBP (or rGmolGOBP) from the protein/1−NPN complex. The initial fluorescence intensity values were measured after a 2 min reaction in 2 mL solution of 20 mM Tris-HCl (pH 7.4) containing 2 µM rGmolPBP (or rGmolGOBP) protein and 2 µM 1−NPN. Then, the solution was titrated with aliquots of 1 mM Z8-14:Ac to obtain final concentrations in the range of 1–14 µM, and the fluorescence intensity value of each reaction was recorded. The Ki values were calculated using the following equation: Ki = [IC50]/(1 + [1 − NPN]/Kd) where IC50 is the concentration of Z8-14:Ac when half of the initial fluorescence intensity value of the rGmolPBP (or GmolGOBP)/1−NPN complex is replaced, [1 − NPN] represents the concentration of free 1−NPN, and Kd is the dissociation constant of the rGmolPBP (or GmolGOBP)/1−NPN complex.

Experiment [3] addresses rGmolGOBP2 (Grapholita molesta, UniProt H9XTU6). Described as above.
Description: as §1, §2

Experiment [4] concerns the target rGmolGOBP1 (Grapholita molesta, UniProt H9XTU5). The description is as above. The settings on record: for Ki: calculated from IC50 and Kd of 1-NPN.
Description: as §1, §2

Experiment [5] has as its target rGmolPBP3 (Grapholita molesta, UniProt A0A059VBP3). Described as above.
Description: as §1, §2

Experiment [6] concerns the target rGmolPBP2 (wild-type) (Grapholita molesta, UniProt A0A059VC28). The experiment is described as above.
Description: as §1, §2

Setting [7] is: 2 μM protein, 2 μM 1-NPN, pH 7.4, read-out: IC50 (displacement of 1-NPN).
[8] abbreviates: calculated from IC50 and Kd of 1-NPN.

Sequence of rGmolGOBP1 (H9XTU5 entry or part of it): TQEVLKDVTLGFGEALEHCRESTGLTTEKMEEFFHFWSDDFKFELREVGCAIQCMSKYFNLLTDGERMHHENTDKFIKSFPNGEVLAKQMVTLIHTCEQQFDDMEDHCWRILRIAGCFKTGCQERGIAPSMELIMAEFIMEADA
Sequence of rGmolGOBP2 (H9XTU6 entry or part of it): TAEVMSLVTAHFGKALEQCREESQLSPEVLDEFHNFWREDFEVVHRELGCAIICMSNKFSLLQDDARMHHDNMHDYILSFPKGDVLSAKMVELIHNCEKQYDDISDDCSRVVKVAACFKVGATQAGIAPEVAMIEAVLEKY
Sequence of rGmolPBP1 (A0A2R4SBD6 entry or part of it): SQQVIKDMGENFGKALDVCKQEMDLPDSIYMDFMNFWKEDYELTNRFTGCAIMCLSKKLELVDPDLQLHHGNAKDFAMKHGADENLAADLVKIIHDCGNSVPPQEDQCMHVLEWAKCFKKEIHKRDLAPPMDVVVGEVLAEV
Sequence of rGmolPBP3 (A0A059VBP3 entry or part of it): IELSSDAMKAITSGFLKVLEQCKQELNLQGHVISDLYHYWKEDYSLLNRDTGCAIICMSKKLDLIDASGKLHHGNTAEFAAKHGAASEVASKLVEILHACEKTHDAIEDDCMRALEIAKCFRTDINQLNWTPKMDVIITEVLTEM
Sequence of rGmolPBP2 (wild-type) (A0A059VC28 entry or part of it): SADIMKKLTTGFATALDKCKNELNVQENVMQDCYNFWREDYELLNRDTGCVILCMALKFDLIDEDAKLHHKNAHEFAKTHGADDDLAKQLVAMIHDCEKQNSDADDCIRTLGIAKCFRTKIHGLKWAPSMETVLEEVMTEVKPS

For the molecule `CCCCC/C=C\CCCCCCCOC(C)=O` [Z8-14:Ac, (Z)-8-tetradecenyl acetate], the “Total PFM Males/Trap” value in experiment [1] (Z8-12:Ac/E8-12:Ac/Z8-14:Ac 500/20/5 μg (100:4:1)) is 64.07 ± 6.89 a Males/Trap; in experiment [1] (Z8-12:Ac/E8-12:Ac/Z8-14:Ac 500/20/10 μg (100:4:2)) it was 45.47 ± 6.64 a Males/Trap; in experiment [1] (Z8-12:Ac/E8-12:Ac/Z8-14:Ac 500/20/25 μg (100:4:5)), 43.06 ± 0.34 a Males/Trap; in experiment [1] (Z8-12:Ac/E8-12:Ac/Z8-14:Ac 500/20/50 μg (100:4:10)) it was 53.73 ± 7.04 a Males/Trap; in experiment [1] (Z8-12:Ac/E8-12:Ac/Z8-14:Ac 500/20/75 μg (100:4:15)) it was 48.57 ± 6.31 a Males/Trap; in experiment [1] (Z8-12:Ac/E8-12:Ac/Z8-14:Ac 500/20/100 μg (100:4:20)), 42.36 ± 8.46 a Males/Trap. The “Total PFM Males/Trap” value was found to be 57.52 ± 21.06 a Males/Trap in experiment [1] (Z8-12:Ac/E8-12:Ac/Z8-14:Ac 500/20/125 μg (100:4:25)) and 72.67 ± 12.44 a Males/Trap in experiment [1] (Z8-12:Ac/E8-12:Ac/Z8-14:Ac 500/20/150 μg (100:4:30)). Also, the “effect on the number of PFM males” value in experiment [1] (adding 1–30% of Z8-14:Ac to the PFM sex attractants) is listed as “neither significantly increased nor inhibited”. Further, the IC50 in experiment [2] (setting [7]) was 2.93 ± 0.07 µM; in experiment [3] (setting [7]), 3.53 ± 0.22 µM; in experiment [4] (setting [7]), above 14 µM; in experiment [5] (setting [7]), 2.78 ± 0.32 µM; in experiment [6] (setting [7]) it was 1.26 ± 0.04 µM. Also, the Ki in experiment [2] (setting [8]) was 1.66 ± 0.04 µM; in experiment [3] (setting [8]), 2.86 ± 0.18 µM; in experiment [4], “could not be calculated”; in experiment [4] (read-out: Ki), above 14 µM; in experiment [5] (setting [8]), 2.56 ± 0.27 µM; in experiment [6] (setting [8]), 0.66 ± 0.02 µM.
